Data on 55 compounds can be found in ChEMBL document CHEMBL3232949, “Rapid identification of Keap1-Nrf2 small-molecule inhibitors through structure-based virtual screening and hit-based substructure search” (J Med Chem, 2014).

The source made the active and inactive calls. The calls are words filed in the database; no cut-off is given here.

For assay [1], the target named is Keap1/Nrf2 (Homo sapiens, UniProt Q14145). The experiment in a line: Inhibition of Keap1-Nrf2 (unknown origin) interaction assessed as compound's equilibrium dissociation constant after 60 mins by fluorescence anisotropy assay. It counts as protein assay.
Sequence of Keap1/Nrf2 (Q16236 whole entry): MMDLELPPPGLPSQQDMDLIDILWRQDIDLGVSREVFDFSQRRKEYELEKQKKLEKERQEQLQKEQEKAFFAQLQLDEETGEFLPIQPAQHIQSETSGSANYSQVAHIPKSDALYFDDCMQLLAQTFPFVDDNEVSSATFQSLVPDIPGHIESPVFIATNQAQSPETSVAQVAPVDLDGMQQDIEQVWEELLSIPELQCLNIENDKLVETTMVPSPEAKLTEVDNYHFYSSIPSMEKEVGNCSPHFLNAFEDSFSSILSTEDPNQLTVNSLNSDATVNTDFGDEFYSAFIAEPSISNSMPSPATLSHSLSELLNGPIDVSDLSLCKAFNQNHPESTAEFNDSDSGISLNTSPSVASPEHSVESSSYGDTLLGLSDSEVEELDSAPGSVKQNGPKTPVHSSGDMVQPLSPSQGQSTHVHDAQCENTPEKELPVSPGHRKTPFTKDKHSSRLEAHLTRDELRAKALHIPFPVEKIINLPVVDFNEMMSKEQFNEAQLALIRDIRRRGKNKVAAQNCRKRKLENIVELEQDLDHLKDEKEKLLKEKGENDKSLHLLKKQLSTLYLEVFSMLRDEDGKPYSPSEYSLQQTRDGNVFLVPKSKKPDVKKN
Sequence of Keap1/Nrf2 (Q14145 whole entry): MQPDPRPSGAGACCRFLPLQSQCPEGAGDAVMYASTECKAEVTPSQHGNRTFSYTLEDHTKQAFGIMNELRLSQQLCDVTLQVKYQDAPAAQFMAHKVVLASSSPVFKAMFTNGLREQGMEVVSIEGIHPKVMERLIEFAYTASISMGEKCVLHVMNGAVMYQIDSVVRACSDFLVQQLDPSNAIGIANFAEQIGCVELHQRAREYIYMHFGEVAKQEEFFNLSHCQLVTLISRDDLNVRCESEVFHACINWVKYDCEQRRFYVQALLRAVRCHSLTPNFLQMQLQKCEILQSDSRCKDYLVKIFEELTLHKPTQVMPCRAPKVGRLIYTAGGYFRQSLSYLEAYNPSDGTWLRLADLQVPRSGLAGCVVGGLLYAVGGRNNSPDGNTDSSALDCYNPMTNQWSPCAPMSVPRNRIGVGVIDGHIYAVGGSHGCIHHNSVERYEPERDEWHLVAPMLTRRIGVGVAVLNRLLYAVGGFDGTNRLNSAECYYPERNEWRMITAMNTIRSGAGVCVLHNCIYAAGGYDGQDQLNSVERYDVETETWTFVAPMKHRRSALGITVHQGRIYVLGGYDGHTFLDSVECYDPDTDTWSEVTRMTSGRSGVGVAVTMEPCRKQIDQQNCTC
Assay [2] concerns the target Kelch-like ECH-associated protein 1 (Homo sapiens) (UniProt Q14145).
Description: Binding affinity to kelch domain of Keap1 (unknown origin) assessed as change in melting temperature after 15 mins by differential scanning fluorimetry assay
Assay [3] addresses T1, Nuclear factor erythroid 2-related factor 2 (Rattus norvegicus) (UniProt O54968).
T1 sequence (whole entry): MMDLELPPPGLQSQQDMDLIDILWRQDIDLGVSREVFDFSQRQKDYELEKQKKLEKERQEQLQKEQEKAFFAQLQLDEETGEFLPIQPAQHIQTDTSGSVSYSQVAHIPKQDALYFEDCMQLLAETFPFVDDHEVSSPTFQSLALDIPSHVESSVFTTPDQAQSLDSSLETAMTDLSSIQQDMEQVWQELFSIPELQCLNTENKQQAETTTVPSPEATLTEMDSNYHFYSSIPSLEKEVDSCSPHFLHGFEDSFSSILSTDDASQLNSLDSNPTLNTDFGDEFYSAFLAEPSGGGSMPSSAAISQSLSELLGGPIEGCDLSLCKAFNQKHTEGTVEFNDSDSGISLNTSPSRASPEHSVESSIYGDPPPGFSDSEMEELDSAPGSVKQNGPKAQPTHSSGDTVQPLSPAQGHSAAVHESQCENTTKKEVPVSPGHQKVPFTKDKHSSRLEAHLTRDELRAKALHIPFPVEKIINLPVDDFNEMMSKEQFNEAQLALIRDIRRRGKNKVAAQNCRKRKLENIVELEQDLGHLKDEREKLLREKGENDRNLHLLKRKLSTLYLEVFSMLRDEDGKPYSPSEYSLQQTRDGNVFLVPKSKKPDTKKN
The experiment in a line: Activation of Nrf2 in rat PC12 cells assessed as increase of HO-1 mRNA level after 4.5 to 9 hrs by qRT-PCR analysis. It counts as cell-based. Conditions: PC-12.

The target in assay [4] is T1, Nuclear factor erythroid 2-related factor 2 (Rattus norvegicus). Kind of assay: Activation of Nrf2 in rat PC12 cells assessed as increase of HO-1 mRNA level at 1 to 4 uM by qRT-PCR analysis. The assay is classed as cell-based. Conditions: PC-12, TDE = time-dependent effect.
For assay [5] the target is unchanged. Kind of assay: Induction of nuclear translocation of Nrf2 in rat PC12 cells at 4 uM after 4.5 hrs by Western blot analysis. The settings on record: PC-12. It counts as cell-based.
Assay [6] has the same target. The experiment in a line: Induction of nuclear translocation of Nrf2 in rat PC12 cells at 4 uM after 1.5 hrs by Western blot analysis. The settings on record: PC-12. The assay is classed as cell-based.
Assay [7] shares this target. Kind of assay: Activation of Nrf2 in rat PC12 cells assessed as increase of NQO-1 mRNA level at 1 to 4 uM after 4.5 to 9 hrs by qRT-PCR analysis. It counts as cell-based. Conditions: PC-12. (In general: In qPCR the cycle at which signal appears reflects the starting amount.)
Assay [8] shares this target. The experiment in a line: Activation of Nrf2 in rat PC12 cells assessed as increase of HO-1 mRNA level at 1 to 4 uM after 4.5 to 9 hrs by qRT-PCR analysis. The settings on record: PC-12. It counts as cell-based.

Sequence of Kelch-like ECH-associated protein 1 (Homo sapiens) (Q14145 whole entry): as the sequence (Q14145 whole entry) above

Turning to `COC(=O)c1ccc(N2NC(=O)/C(=C/c3ccc(-c4ccc(S(N)(=O)=O)cc4)o3)C2=O)cc1`, the Kd (usually a measure of binding affinity in units of concentration) in assay [1] was above 100 µM.

Consider `Cc1cc(C)c(S(=O)(=O)Nc2cc3sc(=O)oc3c3ccccc23)cc1C`, for which, in assay [1], the Kd is above 100 µM. Moreover, in assay [2], the thermal shift (ΔTm) (in general, the shift of the melting midpoint relative to a reference) turned out to be 1 °C.

`COc1ccc(-n2cccc2/C=C2\SC(=O)N(CC(=O)Nc3cccc(C)c3)C2=O)cc1`: the Kd in assay [1] was above 100 µM.

In the case of `CC(C)c1ccc(S(=O)(=O)Nc2cc(SCC(=O)O)c(O)c3ccccc23)cc1`, the Kd in assay [1] is 6.4 µM.

As to `Cc1cc(F)ccc1S(=O)(=O)Nc1cc(SCC(=O)O)c(O)c2ccccc12`, the dissociation constant Kd in assay [1] amounted to 12.2 µM.

For the compound `COc1ccc(S(=O)(=O)Nc2cc(Sc3ccccc3)c(O)c3ccccc23)cc1`, in assay [1], the Kd is above 100 µM.

With `O=C1NN(c2cccc(Cl)c2)C(=O)/C1=C\c1ccc(-c2ccc(Br)cc2C(=O)O)o1`, the Kd in assay [1] came out at 39.5 µM.

With `O=S(=O)(Nc1cc(Sc2nc[nH]n2)c(O)c2ccccc12)c1ccc2ccccc2c1`, the dissociation constant Kd in assay [1] amounted to 3.6 µM.

Regarding `O=S(=O)(Nc1cc(Sc2nnnn2-c2ccccc2)c(O)c2ccccc12)c1ccccc1`, the Kd in assay [1] turned out to be 55.5 µM.

With `Cc1cccc(NC(=O)CN2C(=O)S/C(=C\c3cccn3-c3cccc(C(=O)O)c3)C2=O)c1`, the Kd in assay [1] turned out to be 68.2 µM.

Take `O=S(=O)(Nc1cc(Sc2nc[nH]n2)c(O)c2ccccc12)c1ccc(Br)cc1`: the Kd in assay [1] was 13.1 µM.

Consider `O=C1NN(c2cccc(Cl)c2)C(=O)/C1=C\c1ccc(-c2ccc(C(=O)O)c(Cl)c2)o1`, for which the Kd in assay [1] was 15.2 µM. The ΔTm in assay [2] worked out at 2 °C.

Consider `Cc1ccc(N2NC(=O)/C(=C/c3ccc(-c4ccc(S(=O)(=O)Nc5nccs5)cc4)o3)C2=O)cc1`, for which, in assay [1], the Kd is above 100 µM.

For the compound `Cc1ccc(S(=O)(=O)Nc2cc(Sc3nc4ccccc4s3)c(O)c3ccccc23)cc1`, the Kd in assay [1] is above 100 µM. Also, in assay [2], the ΔTm was determined as 1 °C.

For the compound `O=C(O)CSc1cc(NS(=O)(=O)c2ccc(Cl)cc2)c2ccccc2c1O`, the Kd in assay [1] is 15.3 µM.

Consider `Cc1ccc(S(=O)(=O)Nc2ccc(O)c(Sc3nc[nH]n3)c2)cc1`, for which, in assay [1], the Kd was above 100 µM.

With `Cc1ccc(NC(=O)CN2C(=O)S/C(=C\c3cccn3-c3cccc(C(=O)O)c3)C2=O)c(C)c1`, in assay [1], the Kd is 47.6 µM.

As to `CCOc1ccc(S(=O)(=O)Nc2cc(Sc3nc[nH]n3)c(O)c3ccccc23)cc1`, in assay [1], the Kd worked out at 3.1 µM. Besides, the ΔTm in assay [2] is 4 °C.

Turning to `O=C(O)CSc1cc(NS(=O)(=O)c2ccc(Br)cc2)c2ccccc2c1O`, the Kd in assay [1] is 14.7 µM.

For the compound `CC(C)(C)c1ccc(S(=O)(=O)Nc2cc(SCc3ccco3)c(O)c3ccccc23)cc1`, the Kd in assay [1] was above 100 µM.

As for `Cc1ccc(S(=O)(=O)Nc2cc(SCc3ccccc3)c(O)c3ccccc23)cc1`, the Kd in assay [1] was above 100 µM.

As for `COc1ccc(-n2cccc2/C=C2\SC(=O)N(CC(=O)Nc3ccc(C)cc3)C2=O)cc1`, the Kd in assay [1] was above 100 µM.

For `CN1C(=O)S/C(=C\c2cccn2-c2cccc(C(=O)O)c2)C1=O`, the Kd in assay [1] is above 100 µM.

As for `CC(C)c1ccc(S(=O)(=O)Nc2cc(Sc3nc[nH]n3)c(O)c3ccccc23)cc1`, the Activity result in assay [3] was “Dose-dependent effect”; in assay [4] it was “tde”. Further, the result in assay [5] was inactive. In addition, in assay [6], the result was Active.

For the compound `O=C(CN1C(=O)S/C(=C\c2cccn2-c2cccc(C(=O)O)c2)C1=O)Nc1ccc(Cl)cc1`, in assay [1], the Kd is above 100 µM.

As for `Cc1ccc(S(=O)(=O)Nc2cc(SCC(=O)O)c(O)c3ccccc23)cc1`, the Kd in assay [1] was determined as 15.4 µM.

As for `O=S(=O)(Nc1cc(Sc2nc[nH]n2)c(O)c2ccccc12)c1ccccc1`, the Kd in assay [1] turned out to be 61.2 µM.

Regarding `O=C(O)CSc1cc(NS(=O)(=O)c2cccs2)c2ccccc2c1O`, the Kd in assay [1] stood at 36.6 µM.

Consider `NC(=O)c1ccc(-c2ccc(/C=C3/C(=O)NN(c4ccc(F)cc4)C3=O)o2)cc1`, for which, in assay [1], the Kd is above 100 µM.

On to `O=C1NN(c2ccc(Br)cc2)C(=O)/C1=C\c1ccc(-c2ccccc2)o1`, for which the Kd in assay [1] is above 100 µM.

Turning to `Cc1ccc(NC(=O)CN2C(=O)S/C(=C\c3cccn3-c3cccc(C(=O)O)c3)C2=O)cc1C`, in assay [1], the Kd was determined as 28.9 µM.

`O=C1NN(c2cccc(F)c2)C(=O)/C1=C\c1ccc(-c2ccc(C(=O)O)cc2)o1`: in assay [1], the Kd was 77.8 µM.

For `Cc1ccc(S(=O)(=O)Nc2cc(Sc3cccc4cccnc34)c(O)c3ccccc23)cc1`, the equilibrium dissociation constant (Kd) in assay [1] was above 100 µM.

Turning to `O=C1NN(c2cccc(Cl)c2)C(=O)/C1=C\c1ccc(-c2cccc(C(=O)O)c2)o1`, the Kd in assay [1] turned out to be 49.2 µM.

As to `Cc1cc(C)c(S(=O)(=O)Nc2cc(Sc3nc[nH]n3)c(O)c3ccccc23)cc1C`, in assay [1], the Kd turned out to be 3.6 µM.

Regarding `Cc1cc(C)c(S(=O)(=O)Nc2cc(Cl)c(O)c(Sc3nc[nH]n3)c2)cc1C`, in assay [1], the Kd was 20.9 µM.

`CC(=O)Oc1c(SCC(=O)O)cc(NS(=O)(=O)c2ccc(F)cc2)c2ccccc12`: in assay [1], the Kd was above 100 µM.

Turning to `Cc1cccc(C)c1NC(=O)CN1C(=O)S/C(=C\c2cccn2-c2cccc(C(=O)O)c2)C1=O`, the Kd in assay [1] was above 100 µM.

For the compound `COc1ccc(S(=O)(=O)Nc2cc(Sc3nc[nH]n3)c(O)c3ccccc23)cc1`, the Kd in assay [1] was 6.8 µM.

Take `Cc1ccc(S(=O)(=O)Nc2cc(Sc3nc(C)cc(C)n3)c(O)c3ccccc23)cc1`: the Kd in assay [1] is above 100 µM.

On to `COc1ccc(NC(=O)CN2C(=O)S/C(=C\c3cccn3-c3ccc(C(=O)O)cc3)C2=O)cc1`, for which the Kd in assay [1] is 23.8 µM.

Turning to `Cc1oc2c(cc(NS(=O)(=O)c3ccc(Cl)cc3)c3ccccc32)c1C(=O)O`, the Kd in assay [1] worked out at 75.2 µM.

Take `O=C(CN1C(=O)S/C(=C\c2cccn2-c2cccc(C(=O)O)c2)C1=O)Nc1ccc(F)cc1`: the Kd in assay [1] is above 100 µM.

Regarding `COc1ccc(S(=O)(=O)Nc2ccc(NS(=O)(=O)c3ccc(OC)cc3)c3ccccc23)cc1`, the result in assay [7] and in assay [8] was inactive. In addition, the ΔTm in assay [2] was 1 °C.

For the compound `O=C(O)CSc1cc(NS(=O)(=O)c2ccc3ccccc3c2)c2ccccc2c1O`, the Kd in assay [1] amounted to 7.8 µM.

Regarding `Cc1ccc(NC(=O)CN2C(=O)S/C(=C\c3cccn3C)C2=O)c(C)c1`, the Kd in assay [1] is above 100 µM.

On to `O=C(O)CSc1cc(NS(=O)(=O)c2ccc(F)cc2)c2ccccc2c1O`, for which the Kd in assay [1] was 30.2 µM.

On to `O=C1NN(c2ccccc2)C(=O)/C1=C\c1ccc(-c2ccc(C(=O)O)c(Cl)c2)o1`, for which the equilibrium dissociation constant (Kd) in assay [1] stood at 42.9 µM.

For `Cc1cc(C)c(S(=O)(=O)Nc2cc(SCC(=O)O)c(O)c3ccccc23)c(C)c1`, the Kd in assay [1] was 4.2 µM.

Turning to `CCOc1cc(/C=C2\N=C(c3ccccc3)OC2=O)cc(Br)c1OCC(=O)O`, the Kd in assay [1] worked out at 29.5 µM.

Consider `Cc1cccc(N2NC(=O)/C(=C/c3ccc(-c4ccc(S(N)(=O)=O)cc4)o3)C2=O)c1`, for which the dissociation constant Kd in assay [1] was above 100 µM.

In the case of `O=C(O)CSc1cc(NS(=O)(=O)c2cccc3cccnc23)c2ccccc2c1O`, the Kd in assay [1] is 18.9 µM.

For the compound `Cc1ccccc1NC(=O)CN1C(=O)S/C(=C\c2cccn2-c2cccc(C(=O)O)c2)C1=O`, the Kd in assay [1] stood at 10.4 µM. Further, the ΔTm in assay [2] came out at 1 °C.

For the compound `O=C(CN1C(=O)S/C(=C\c2cccn2-c2ccc(O)cc2)C1=O)Nc1ccccc1F`, in assay [1], the Kd was above 100 µM.

As for `Cc1ccc(/N=C2/S/C(=C\c3c(C)n(CC(=O)O)c4ccccc34)C(=O)N2C)cc1`, in assay [1], the Kd turned out to be 35.4 µM.
